Measured values as given in EP4759817A1, “HETEROARYL COMPOUND, PREPARATION METHOD THEREFOR, AND USE THEREOF IN MEDICINE” (Jiangsu Hengrui Pharmaceuticals Co., Ltd., priority 2023, dated 2025).

Columns and labels:
HCT116 cells = test: HCT116 cell proliferation assay (CellTiter-Glo, 10 days); assay type: cell-based; conditions: Homo sapiens, HCT-116, 240 h, growth inhibition, CTG assay Day 10
Description: • I. Experimental materials and instruments • 1. HCT116 cell line (Nanjing Kebai Biotechnology Co., Ltd., CBP60028) • 2. HCT116 MTAP-/- cell line (Nanjing Kebai Biotechnology Co., Ltd., CBP75002) • 3. DMSO (Sigma, D2650) • 4. McCoy's 5A medium (Gibco, 16600-082) • 5. Foetal bovine serum (FBS) (Gibco, 10091148) • 6. Phosphate buffered saline (DPBS) pH 7.4 (Gibco, 14190-144) • 7. Pen strep (PS) (Gibco, 15140-122) • 8. 0.25% Typsin-EDTA (1×) (Gibco, 25200-072) • 9. CellTiter-Glo® Luminescent Cell Viability Assay (Promega, G7572) • 10. 96-well round-bottom plate (JET, TCP002096) • 11. 96-well black clear bottom plate (Hangzhou Xinyou Biotechnology Co., Ltd., 060096) • 12. 1.2 mL 96-well deep well plate, clear, sterile, square-well, V-bottom (Titan, 02089063) • 13. 15-mL centrifuge tube (Titan) • 14. Biosafety cabinet (Thermo, 1300AII) • 15. Cell counter (Countstar, IC1000) • 16. Incubator (Thermo, I160) • 17. Centrifuge (Beckman coulter, Allegra X-12 centrifuge) • 18. PHERAstar FS microplate reader (BMG Labtech) • II. Experimental procedure • 1. Cell plating (Day 0) • a) The cell morphology was observed under a microscope to ensure confluence reached approximately 90%. • b) The cell supernatant was aspirated, the cells were washed once with PBS, and then the PBS was removed; and the cells were digested by adding an appropriate amount of trypsin, and left to stand at 37°C for 3 minutes. • c) The digestion was terminated by adding an equal volume of McCoy's 5A medium containing 10% FBS, and the cell suspension was collected and centrifuged at 300 g for 3 minutes; and the cells were resuspended in an appropriate amount of fresh medium. • d) The resuspended cell suspension was taken for counting. • e) The cell suspension was diluted to 1e4/mL using McCoy's 5A medium containing 10% FBS, and seeded at 50 µL per well, corresponding to 500 cells/well for HCT116 and 500 cells/well for HCT116 MTAP-/-. • f) The cell plate was placed in a 37°C, 5% carbon dioxide incubator and incubated overnight. • 2. Compound treatment (Day 1) • a) Each compound was serially diluted in DMSO to generate a 9-point concentration gradient (starting concentration: 10000 µM, 3-fold dilution; the highest concentration may be adjusted individually based on IC50 of different compounds); for example, in a 96-well round-bottom compound-dilution plate, 5 µL of the compound was sequentially diluted into 10 µL of DMSO. • b) Each concentration point of every compound was then diluted 250-fold into the corresponding volume of McCoy's 5A medium. • c) To each cell plate, 50 µL of the diluted compound solution as described above was added sequentially to the cell supernatant (50 µL/well). • d) The compound-treated cell plate was placed in a 37°C, 5% carbon dioxide incubator and incubated. • 3. […]

Lu99 xenografts = test: Efficacy test in subcutaneous Lu99 xenograft model; assay type: in vivo, NUNU nude mice; conditions: i.g., qd/21d
Description: To evaluate the inhibitory effect of the compounds of the present disclosure on tumour growth in a subcutaneous xenograft model using the human lung giant cell carcinoma cell line Lu99 in female NUNU nude mice
Using a solution of 20% PEG400 + 70% (10% TPGS) + 5%DMSO+5% (1% HPMCK100LV) solution
Laboratory animals: Female NUNU nude mice, purchased from Zhejiang Vital River Laboratory Animal Technology Co., Ltd. (License No.: SCXK(Zhe)2024-0001; animal qualification certificate No.: 20240524Abzz0619000789), weighing approximately 20-24 g at arrival.
Housing conditions: The mice were housed 5 per cage under a 12/12 h light/dark cycle, constant temperature of 23°C ± 1°C, humidity of 50%-60%, with free access to food and water.
After acclimatisation, NUNU nude mice were grouped and administered as follows: Table 4. Animal grouping and dosing regimen for in vivo efficacy experiment
(§1) 0.1 ml (5 × 10^5 cells ± 50% matrigel) of Lu99 cells (cell-to-matrigel volume ratio = 1 : 1) in the logarithmic growth phase was subcutaneously injected into the right upper limb of each mouse. When the mean tumour volume reached 75 mm^3, mice were randomly assigned to 4 groups (12 mice per group) based on tumour volume and body weight, as shown in Table 4. The day of grouping was designated as D0, and oral gavage administration was initiated once or twice daily for a total of 21 days. The 21st day after administration was designated as D21 (Table 5). Tumour volume and body weight of tumour-bearing mice were measured twice weekly using a calliper and a balance, respectively, and the data were recorded.
All data were plotted and statistically analysed using Excel and GraphPad Prism 10 software.
Tumour volume (V) was calculated using the formula: V = 1/2 × a × b^2, where a represents the length and b represents the width.
Relative tumour proliferation rate: T/C (%) = (T-T0)/(C-C0) × 100(%), where T and C are the tumour volumes of the treated and control groups at the end of the experiment, and T0 and C0 are the corresponding tumour volumes at the start of the experiment.
Tumour growth inhibition: TGI (%) = 100-T/C (%).

[1] = Body weight and survival of tumour-bearing mice in the Lu99 efficacy test; assay type: in vivo, NUNU nude mice; conditions: for Surviving animals/group: i.g., qd/21d
Protocol: as §1

Cn1ncc(-c2ccc3c(=O)[nH]nc(CN)c3c2)c1-c1c(F)cc2c(c1C#N)O[C@H]1CC[C@H]1O2 (atropisomer, axis not shown; (M)) [Compound 1-p1, (M)-(2aS,8aR)-5-(4-(4-(aminomethyl)-1-oxo-1,2-dihydrophthalazin-6-yl)-1-methyl-1H-pyrazol-5-yl)-6-fluoro-1,2,2a,8a-tetrahydrobenzo[b]cyclobuta[e][1,4]dioxine-4-carbonitrile]
IC50 (HCT116 cells): 1.45 µM

[2H]C([2H])([2H])n1ncc(-c2ccc3c(=O)[nH]nc(CN)c3c2)c1-c1c(F)cc2c(c1C#N)O[C@H]1CC[C@H]1O2 (single isomer, unassigned) [Compound 2-p1]
Mean tumour volume (mm^3) D21 (Lu99 xenografts; 50 mpk): 574 mm^3
TGI (%) D21 (Lu99 xenografts; 50 mpk): 72%
Mean tumour volume (mm^3) D21 (Lu99 xenografts; 100 mpk): 256 mm^3
TGI (%) D21 (Lu99 xenografts; 100 mpk): 90%
Mean tumour volume (mm^3) D21 (Lu99 xenografts; 200 mpk): 165 mm^3
TGI (%) D21 (Lu99 xenografts; 200 mpk): 95%
effect on body weight of the mice ([1]; 50, 100 and 200 mpk/qd, once daily for 21 days): no effects on body weight
Surviving animals/group ([1]; 50 mpk): 12/12
Surviving animals/group ([1]; 100 mpk): 12/12
Surviving animals/group ([1]; 200 mpk): 12/12
IC50 (HCT116 cells): 1.3 µM

[2H]C([2H])([2H])n1ncc(-c2ccc3c(=O)[nH]nc(CN)c3c2)c1-c1c(F)cc2c(c1C#N)N1CCC[C@H]1CO2 (single isomer, unassigned) [Compound 8-p1]
IC50 (HCT116 cells): 1.45 µM
